Assays:
Assay in all cases: relative viability (nuclei count vs DMSO), 5 days (fraction); higher = more cells survive
GW-2580 + Lapatinib = compound: COC1=CC=C(C=C1)COC2=C(C=C(C=C2)CC3=CN=C(N=C3N)N)OC [GW-2580] + CS(=O)(=O)CCNCc1ccc(-c2ccc3ncnc(Nc4ccc(OCc5cccc(F)c5)c(Cl)c4)c3c2)o1 [Lapatinib] (partner 2 µM)
Summary of the method: (§1)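 Lung cancer cell lines were pin-tool dosed in 1536-well plates on the day after seeding, with either a lone drug or a fixed anchor-drug dose plus five library-drug doses (not always all listed) in √10 steps. Nuclei were counted on 4× images after 5 days. Relative viability is the ratio of treated-well to vehicle-well nuclei counts, with each value a median of duplicate plates.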

Fedratinib + Trametinib = compound: Cc1cnc(Nc2ccc(OCCN3CCCC3)cc2)nc1Nc1cccc(S(=O)(=O)NC(C)(C)C)c1 [Fedratinib] + CC(=O)Nc1cccc(-n2c(=O)n(C3CC3)c(=O)c3c(Nc4ccc(I)cc4F)n(C)c(=O)c(C)c32)c1 [Trametinib] (partner 0.02 µM)
Summary of the method: as §1

GW-2580 + Alpelisib = compound: COC1=CC=C(C=C1)COC2=C(C=C(C=C2)CC3=CN=C(N=C3N)N)OC [GW-2580] + Cc1nc(NC(=O)N2CCC[C@H]2C(N)=O)sc1-c1ccnc(C(C)(C)C(F)(F)F)c1 [Alpelisib] (partner 2 µM)
Summary of the method: as §1

Fedratinib + Vorinostat = compound: Cc1cnc(Nc2ccc(OCCN3CCCC3)cc2)nc1Nc1cccc(S(=O)(=O)NC(C)(C)C)c1 [Fedratinib] + O=C(CCCCCCC(=O)Nc1ccccc1)NO [Vorinostat] (partner 1 µM)
Summary of the method: as §1

GW-2580 + Linsitinib = compound: COC1=CC=C(C=C1)COC2=C(C=C(C=C2)CC3=CN=C(N=C3N)N)OC [GW-2580] + C[C@]1(O)C[C@@H](c2nc(-c3ccc4ccc(-c5ccccc5)nc4c3)c3c(N)nccn32)C1 [Linsitinib] (partner 1 µM)
Summary of the method: as §1

Q: Which results are given for UMC-11?
A: relative viability (GW-2580 + Lapatinib; first compound 0.08 µM): 1.26; relative viability (GW-2580 + Lapatinib; first compound 0.8 µM): 1.11; relative viability (GW-2580 + Lapatinib; first compound 2.53 µM): 0.88; relative viability (GW-2580 + Lapatinib; first compound 8 µM): 1.15; relative viability (Fedratinib + Trametinib; first compound 0.1 µM): 0.625; relative viability (Fedratinib + Trametinib; first compound 0.3162 µM): 0.476; relative viability (Fedratinib + Trametinib; first compound 1 µM): 0.52; relative viability (GW-2580 + Alpelisib; first compound 0.08 µM): 0.959; relative viability (GW-2580 + Alpelisib; first compound 0.8 µM): 1.07; relative viability (GW-2580 + Alpelisib; first compound 2.53 µM): 1.11; relative viability (GW-2580 + Alpelisib; first compound 8 µM): 1.21; relative viability (Fedratinib + Vorinostat; first compound 0.1 µM): 0.377; relative viability (Fedratinib + Vorinostat; first compound 0.3162 µM): 0.357; relative viability (Fedratinib + Vorinostat; first compound 1 µM): 0.241; relative viability (GW-2580 + Linsitinib; first compound 0.08 µM): 1.02; relative viability (GW-2580 + Linsitinib; first compound 0.8 µM): 1.15; relative viability (GW-2580 + Linsitinib; first compound 2.53 µM): 0.998; relative viability (GW-2580 + Linsitinib; first compound 8 µM): 1.02

From the supplement of paper PMC10307832
